We go through two compounds from patent US9222093B2, “Two-way, portable riboswitch mediated gene expression control device” (THE UNIVERSITY OF HONG KONG, priority 2011, dated 2015).

The test system of test [1] is CsrB locus. Description: Autoaggregation and biofilm formation of ON-lacI strain harboring pLacIb-CsrB. It is filed as cell-based, E. coli. The source says: CsrB locus 706 has previously been cloned into a high copy vector (plasmid) 704. Two LacIbs 112 were inserted around the transcriptional start site to place expression of CsrB locus 706 under the control of ON-lacI riboswitch 302. Since one LacIb is after the transcriptional start site, the resulting CsrB differs slightly from the native one by the extra 21 nt-sequence (i.e. LacIb). […] This CsrB-carrying vector 704 was introduced into the ON-lacI strain, and autoaggregation and biofilm formation were examined.
To measure autoaggregation, overnight cultures were diluted 1:500 and incubated at 37° C., with shaking at 220 rpm, in liquid LB medium. When cells aggregated (visualized macroscopically by the clumping or ‘fluffing’ of cells in liquid cultures), 100 μl of each cell suspension was transferred to flat-bottom 96-well plates (Iwaki, Tokyo, Japan) and the images of the cell aggregates were captured by scanning. To better visualize the cell aggregates, 1 μl of crystal violet (0.1%) was added to each cell suspension immediately prior to image capture. Cellular autoaggregation was also examined microscopically. Cell suspensions were spread on a microscope slide, heat-fixed, stained with DAPI (4′6-diamidino-2-phenylindol), and imaged using a fluorescence stereomicroscope SZX12 (Olympus, Tokyo, Japan) with DAPI filter sets.
Biofilms were formed on polystyrene, flat-bottom 96-well microtiter plates (Iwaki, Tokyo, Japan). 200 μl of each cell suspension (10^5 cells/ml) was transferred into each well of a microtiter plate, and incubated for 24 h at 37° C. in a shaker at 75 rpm. Resulting biofilms were washed thrice with PBS and air dried. Then, biofilms were stained with […] of 0.4% aqueous crystal violet solution for 15 min. Next, biofilms were washed three times with sterile distilled water and immediately destained with 200 μl of 95% ethanol. After 30 min of destaining, 100 μl of destaining solution was transferred to a new well and measured with a microtiter plate reader (SpectraMAX®340 Tunable Microplate Reader; Molecular Devices Ltd.) at 595 nm.

For test [2], the system named is wild type strain. Description: Extracellular acetate assimilation, wild type strain. It is filed as cell-based, E. coli. The settings on record: data not shown. The source says: (§1) Bacterial cells switch from rapid growth during which they produce and excrete acetate (dissimilation) in the presence of abundant nutrients to slower growth supported by the import and utilization of the excreted acetate (assimilation) when glucose is exhausted. This physiological event is defined as an acetate switch, a survival response allowing cells to compete successfully during carbon starvation. It was previously reported that RpoS positively regulates consumption of acetate by activating the expression of acetyl-coenzyme A synthetase enzyme (Acs). However, the opposite results were obtained with ON-lacI-rpoS construction provided herein. […] When grown in the presence of theophylline (2 mM) and absence of IPTG, rpoS expression was shut off and accordingly, acetate assimilation was accelerated (FIG. 8A). […] The enhanced acetate assimilation was also observed with the newly constructed rpoS gene locus null mutant, shown in graph 804 (FIG. 8B). […] It is therefore apparent that RpoS represses acetate assimilation.

Test [3] deals with ON-lacI-rpoS cells. Description: Extracellular acetate assimilation. It is filed as cell-based, E. coli.
From the text: as §1

Test [4] has as its target T1, LacI repressor protein (Escherichia coli, UniProt P03023).
T1 construct: ON-lacI riboswitch 302 was incorporated into the chromosome upstream from intact lad gene (i.e., not fused with lacZ); endogenous in cells; host or cells: E. coli MG1655 derivative with ON-lacI riboswitch on the chromosome and intact lacZ locus
The test can be described thus: β-galactosidase assay of lacZ in cells carrying ON-lacI riboswitch and intact lacZ (IPTG arm of two-way control). The test is classed as cell-based, E. coli MG1655. The following applies: medium containing 1600 μM theophylline. The source says:
(§2) The loxP-cat-loxP selectable cassette was inserted immediately after the stop codon of the lacZ gene on the MG1655 chromosome using recombineering methods. Next, the lacZ-loxP-cat-loxP cassette was PCR amplified and inserted (in frame) immediately prior to the stop codon of the target gene on the chromosome. The inserted lacZ fragment started from the 8th codon of the lacZ gene, and was co-transcribed and translated with the fused genes. The expression of gene-lacZ fusions was quantified using a β-galactosidase assay. Levels of β-galactosidasewere calculated using the following formula: units (U)=[…]
ON-lacI riboswitch 302 makes two-way gene regulation possible because the Lad repressor protein can be inactivated by isopropyl β-D-1-thiogalactopyranoside (IPTG). Thus, adding theophylline to the culture medium switches on lacI translation, and transcriptionally represses the target genes of LacI. In contrast. IPTG inactivates LacI by binding to the protein and derepresses transcription of the target genes.
Two-way control was verified by determining β-galactosidase levels of the cells carrying both ON-lacI riboswitch 302 and an intact lacZ gene locus. Theophylline and IPTG regulated lacZ in opposite directions in a concentration-dependent manner (graph 312, FIG. 3D). The effective concentration range of theophylline was 100-1600 μM. […]

Test [5] deals with rpoS gene locus. The test can be described thus: Acid survival of ON-lacI-rpoS strain (pH 2.0, 2 hours). The test is classed as cell-based, E. coli. The source says: The ON-lacI-LacIbs cassette (2500 bp) from the genome of the strain carrying the ON riboswitch of lacI is amplified using […]. Cassette 602 is composed of the cat gene, the ON-lacI riboswitch, the lacI gene, and the lacI-lacZ intergenic region containing two LacIbs. The cat gene facilitates integration of this cassette immediately upstream of any target gene via recombineering. The riboswitch cassette was inserted upstream of the ribosomal binding site of rpoS gene locus […] (FIG. 6A). Next, the native lacI was deleted from this strain, generating a new mutant strain, ON-lacI-rpoS. This strain was used to test whether rpoS gene locus 606 could be controlled by the theophylline-responsive and LacI-repressible regulation cassette 602. Since rpoS is required for acid resistance, survival of strain […] under acidic conditions was assayed. Overnight cultures were treated with acid (pH 2.0) for 2 hours, and then serially diluted in neutral medium. After culturing overnight, colony forming units (CFU) of acid-treated and untreated cells were determined Acid survival (%) was calculated using the formula: Acid survival (%)=100×(CFU of treated/CFU of untreated).

In test [6] the test system is ON-crp strain. The test can be described thus: Motility of ON-crp strain on semisolid motility plates. The test is classed as cell-based, E. coli MG1655. The following applies: theophylline ligand added; increased with higher theophylline concentrations. As to the method: The motility phenotype of the ON-crp strain was assayed to further confirm the effectiveness of the ON-riboswitch.

The subject of test [7] is ON-lacI riboswitch. The test can be described thus: β-galactosidase assay of lacZ in cells carrying ON-lacI riboswitch and intact lacZ (theophylline arm of two-way control). It is filed as cell-based, E. coli MG1655.
From the text: as §2
ON-lacI riboswitch 302 was incorporated into the chromosome upstream from intact lad gene (i.e., not fused with lacZ). The LacI protein represses expression of lacZ so that ON riboswitch 302 indirectly switches off lacZ in response to theophylline.
Two-way control was verified by determining β-galactosidase levels of the cells carrying both ON-lacI riboswitch 302 and an intact lacZ gene locus. Theophylline and IPTG regulated lacZ in opposite directions in a concentration-dependent manner (graph 312, FIG. 3D). The effective concentration range of theophylline was 100-1600 μM. […] When IPTG was added to the medium containing 1600 μM theophylline, lacZ was derepressed. The effective range of IPTG was 0.16-40 μM.

Test [8] concerns lacI-lacZ fusion. The test can be described thus: β-galactosidase assay of lacI-lacZ translational fusion. The test is classed as cell-based, E. coli MG1655. The settings on record: E. coli mutant containing ON-lacI riboswitch; with vs without theophylline.
From the text: as §2
To engineer an ON-riboswitch of the lacI gene, riboswitch cassette 302, cat-aptamer-linker-random sequence, was integrated upstream of the ribosomal binding site of lacI-lacZ usion 304 on the chromosome using standard recombineering methods (FIG. 3A).
The resulting mutant collection was grown on X-gal plates 306 in the absence of theophylline. Approximately 2000 colonies were screened for color. Two white clones were identified. […]

The mark [9] stands for this setting: in the presence of theophylline.

T1 sequence (P03023 whole entry, the tested form may be a part): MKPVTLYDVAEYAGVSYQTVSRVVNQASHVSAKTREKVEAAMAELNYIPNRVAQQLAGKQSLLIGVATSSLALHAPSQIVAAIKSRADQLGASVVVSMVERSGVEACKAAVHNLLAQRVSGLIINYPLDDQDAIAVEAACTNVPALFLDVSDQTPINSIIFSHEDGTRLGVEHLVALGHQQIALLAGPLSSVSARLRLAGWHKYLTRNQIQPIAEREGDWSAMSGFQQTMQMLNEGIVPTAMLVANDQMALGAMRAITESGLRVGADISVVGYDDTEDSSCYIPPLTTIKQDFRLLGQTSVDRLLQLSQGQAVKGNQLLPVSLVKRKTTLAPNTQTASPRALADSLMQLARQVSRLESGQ

In the case of `CC(C)S[C@@H]1O[C@H](CO)[C@H](O)[C@H](O)[C@H]1O` [IPTG, isopropyl β-D-1-thiogalactopyranoside], the “autoaggregation and biofilm formation” value in test [1] (IPTG added together with theophylline) is given as “restored”. For the same compound, the “effect on acetate assimilation in the wild type strain” value in test [2] is recorded as “Neither theophylline nor IPTG had any effect”. In addition, the acetate assimilation result in test [3] (IPTG 1 mM added to the theophylline medium) is reported as “restored to the wild-type levels”. The “effective range of IPTG (lacZ derepression)” value in test [4] lay in the range of 0.16 to 40 µM. Also, the acid survival result in test [5] (40 μM IPTG in medium containing 1600 μM theophylline) was “restored to the wild-type levels”.
Regarding `Cn1c(=O)c2[nH]cnc2n(C)c1=O` [theophylline], in test [1] (setting [9]), the autoaggregation entry is “negative with respect to autoaggregation” and the biofilm formation entry is on record as “low levels of biofilms”. Moreover, the “effect on acetate assimilation in the wild type strain” value in test [2] was “Neither theophylline nor IPTG had any effect”. In addition, the acetate assimilation entry in test [3] (theophylline 2 mM, absence of IPTG) is “accelerated”. Besides, in test [6], the motility result is listed as “gained motility”. In test [7] (ON-lacI combined with LacIbs upstream from lacZ), the “lacZ expression in the presence of theophylline” value was “almost completely repressed”. For the same compound, the “effective concentration range of theophylline (lacZ regulation)” value in test [7] (cells carrying ON-lacI riboswitch and intact lacZ, repression, saturation above the range) was in the range of 100 to 1600 µM. In addition, in test [7] (theophylline less than 100 μM), the “lacZ regulation at theophylline concentrations less than 100 μM” value is “little regulation”. In addition, in test [5] (1600 μM theophylline), the acid survival result is recorded as “comparable to that of an rpoS null mutant”. The “LacI levels in the presence of the ligand” value in test [8] is recorded as “one fold-increase”.
